In one series the test system is Escherichia coli DH5a. Particulars: 16 h.
The subject of series [1] is Enterococcus faecalis ATCC29212. Particulars: ATCC29212, 16 h.
Series [2] concerns P. aeruginosa strain PAO1. As to conditions: for MIC PAO1: PAO1, 16 h.
In series [3] the test system is P. aeruginosa. In words: Drug synergism assay. Format: cell-based, Pseudomonas aeruginosa. As to conditions: P2a combined with ciprofloxacin, checkerboard in MH medium, 37 °C, 16 h; synergy threshold 0.5; strain not stated. As to the method: measured and 15 µL of thiazolyl blue tetrazolium bromide (MTT; 1 mg/mL stock solution in water; Acros) was added to each well of the plate. The MIC was defined as the lowest concentration of the compound with a colourless well indicating no bacterial growth and the results cross-checked with OD600 reading. Each sample was run in triplicate on the same plate. Polymyxin B or ciprofloxacin or both were used as positive controls to ensure comparability of results across different experiments.
Bacterial culture was quantified by measuring the OD600, medium exchanged to MH-medium and culture diluted to OD600 of 0.022 in MH-medium. Stock solution of compound A was diluted to twice the starting concentration in MH medium. […] The next day, OD600 of the microtiter plate was measured and 15 µL of thiazolyl blue tetrazolium bromide (MTT; 1 mg/mL stock solution in water) was added to each well of the plate to cross-check the OD600 readings. […]
150 µL of the solution was added to 96-well plate (3 wells per bacterium) as well as 150 µL of MH medium as a negative control (further 3 wells per bacterium). The media were inoculated with 4 µL of the diluted bacterial solution and incubated in a plate reader at 37◦C for 16 h and absorption at 482 nm (Abs482) and 600 nm (OD600) was continuously measured throughout the incubation. […]

The subject of series [4] is PAO1 strain containing plasmid pUCP20, which encodes a β-lactamase. In words: MIC determination using broth microdilution method. The format is cell-based, Pseudomonas aeruginosa. A general note: Broth dilution looks for growth in wells or tubes with falling amounts of substance.
Series [5] concerns Serratia marcescens ATCC39006. Particulars: ATCC39006, 16 h.
Series [6] relates to P. aeruginosa strain PA14. As to conditions: for MIC PA14: PA14, 16 h; for MIC for PA14: PA14, 18 h.
For series [7], the system named is Pseudomonas aeruginosa strain PAO1. The series can be described thus: Initial susceptibility testing at a fixed concentration. The format is cell-based. Further details: key: Tick (✓) represents OD600 comparable to no-growth control; cross (✗) represents OD600 comparable to growth control without any peptide. As to conditions: 256 μg mL−1 of peptide, overnight incubation, OD600 compared with growth and no-growth controls.

The subject of series [8] is Methicillin-resistant Staphylococcus aureus MRSA15. Particulars: Table 4; broth microdilution in MH medium, 37 °C, 16 h.
Series [9] deals with P. aeruginosa.
The subject of series [10] is Burkholderia thailandensis E264. Particulars: Table 4; broth microdilution in MH medium, 37 °C, 16 h.
Series [11] deals with Klebsiella pneumoniae CK1. Particulars: CK1, 16 h.
The conditions of series [12]: human serum 100 µL in 400 µL MES buffer (pH 6, 50 mM), 37 °C, protein precipitated with 1:1 DMSO:ethanol, HPLC at 220 nm, caffeine standard; Fig. 5b, values not given.
A short description of series [13]: Background stability in PBS buffer. Format: physicochemical. As to conditions: PBS buffer pH 7.4 (50 mM), 37 °C, HPLC at 280 nm, Fig. 5a; values not given.

Converted amounts (≈) assume the structure as drawn. Where two headings read alike, the source gives them in different places. Where a SMILES comes first, the peptide text is derived from it. Where no end group is shown, it is not given here.

The term MIC denotes the least concentration at which growth counts as inhibited. “FAKWAFKWLKK-NH2 [P2a, reference compound]”: the MIC was 4 µg/mL in the series with Escherichia coli DH5a, at least 64 µg/mL in [1], at least 64 µg/mL in series [5] and 32 µg/mL in series [8]. The “PAO1 MIC” value in series [2] (PAO1, 18 h) worked out at 11 µM; in [2] (Table S4, cephalosporin-based staple 8 at different positions), 16 µg/mL. In the series with P. aeruginosa [3], the “fractional inhibitory concentration index” value is reported as 0.75. Also, the “cell growth inhibition in strain with plasmid versus without” value in series [4] (OD600 growth curve, triplicate, Fig. 4b) is given as “no difference in cell growth inhibition”. Also, the “MIC PA14” value in [6] worked out at 64 µg/mL. The “PA14 MIC” value in series [6] (Table S3, initial MIC values) was 32 µg/mL; in series [6] (Table S4), 22 µM. Moreover, the “Inh (inhibition)” value in series [7] was “✗”.
Regarding `C[C@H](NC(=O)[C@H](Cc1c[nH]c2ccccc12)NC(=O)[C@H](CCCCN)NC(=O)[C@H](CS)NC(=O)[C@@H](N)Cc1ccccc1)C(=O)N[C@@H](Cc1ccccc1)C(=O)N[C@@H](CCCCN)C(=O)N[C@@H](Cc1c[nH]c2ccccc12)C(=O)N[C@@H](CS)C(=O)N[C@@H](CCCCN)C(=O)N[C@@H](CCCCN)C(N)=O` [P2] (H-FCKWAFKWCKK-NH2), the “MIC PAO1” value in series [2] came to 32 µg/mL (≈ 21.7 µM). In addition, the “MIC PA14” value in [6] is 32 µg/mL (≈ 21.7 µM). In addition, in series [7], the “Inh (inhibition)” value was “✗”.
On to `C[C@@H]1NC(=O)[C@H](Cc2c[nH]c3ccccc23)NC(=O)[C@H](CCCCN)NC(=O)[C@@H](NC(=O)[C@@H](N)Cc2ccccc2)CSCCc2cc(nc(NCCCc3ccccc3)n2)CCSC[C@@H](C(=O)N[C@@H](CCCCN)C(=O)N[C@@H](CCCCN)C(N)=O)NC(=O)[C@H](Cc2c[nH]c3ccccc23)NC(=O)[C@H](CCCCN)NC(=O)[C@H](Cc2ccccc2)NC1=O` [P2-1] (HELM PEPTIDE1{F.C.K.W.A.F.K.W.C.K.K.[am]}|CHEM1{[c1ccc(CCCNc2nc(CC[*:1])cc(CC[*:2])n2)cc1]}$PEPTIDE1,CHEM1,2:R3-1:R1|PEPTIDE1,CHEM1,9:R3-1:R2$$$V2.0), for which, in the series with P. aeruginosa [9], the “MIC of peptide-staple combinations (heat map)” value was “best activity”. The compound also yielded an MIC against P. aeruginosa [9] (18 h) of 8 to 16 µg/mL. Moreover, in [2], the “MIC PAO1” value turned out to be 16 µg/mL (≈ 9.2 µM). Further, the “MIC PA14” value in series [6] turned out to be 16 µg/mL (≈ 9.2 µM). Moreover, in series [7], the “Inh (inhibition)” value is recorded as “✓”.
`CC(=O)OCC1=C(C(=O)O)N2C(=O)[C@@H](NC(=O)CCCNc3nc4cc(n3)CCSC[C@H](NC(=O)[C@@H](N)Cc3ccccc3)C(=O)N[C@@H](CCCCN)C(=O)N[C@@H](Cc3c[nH]c5ccccc35)C(=O)N[C@@H](C)C(=O)N[C@@H](Cc3ccccc3)C(=O)N[C@@H](CCCCN)C(=O)N[C@@H](Cc3c[nH]c5ccccc35)C(=O)N[C@H](C(=O)N[C@@H](CCCCN)C(=O)N[C@@H](CCCCN)C(N)=O)CSCC4)[C@H]2SC1` [P2-8]: the minimal inhibitory concentration (MIC) in the series with Escherichia coli DH5a is 32 µg/mL (≈ 16.3 µM); in [1], 2 µg/mL (≈ 1.02 µM); in [5] it was at least 64 µg/mL; in [10], at least 64 µg/mL; in series [11], at least 64 µg/mL; in series [8] it was 64 µg/mL (≈ 32.6 µM). For the same compound, in series [2] (PAO1, 18 h), the “MIC for PAO1” value is over 33 µM. For the same compound, the “MIC for PA14” value in series [6] was over 33 µM. Moreover, in [12], the serum stability result is on record as “improved stability over unstapled P2a”.
Consider `C[C@@H]1NC(=O)[C@H](Cc2c[nH]c3ccccc23)NC(=O)[C@H](CCCCN)NC(=O)[C@@H](NC(=O)[C@@H](N)Cc2ccccc2)CSCCc2cc(nc(NCCCC(=O)N[C@@H]3C(=O)N4C(C(=O)O)C(COC(=O)N5CCN(c6cc7c(cc6F)c(=O)c(C(=O)O)cn7C6CC6)CC5)=CS[C@H]34)n2)CCSC[C@@H](C(=O)N[C@@H](CCCCN)C(=O)N[C@@H](CCCCN)C(N)=O)NC(=O)[C@H](Cc2c[nH]c3ccccc23)NC(=O)[C@H](CCCCN)NC(=O)[C@H](Cc2ccccc2)NC1=O` (some centres unmarked) [P2-10], for which the MIC in the series with Escherichia coli DH5a is 1 µg/mL (≈ 0.439 µM); in series [1], 16 µg/mL (≈ 7.03 µM); in series [5], 16 µg/mL (≈ 7.03 µM); in series [11] it was at least 64 µg/mL. Further, in series [13], the “background hydrolysis rate mediated by buffer only” value is reported as “significantly lower than when β-lactamase was present”. Moreover, the “MIC for PAO1” value in [2] (PAO1, 18 h) was 7.0 µM. Moreover, the “PAO1 MIC” value in series [2] (Table S3, initial MIC values) is listed as 16 µg/mL. Also, the “MIC for PAO1 after adding β-lactamase” value in [2] (medium supplemented with 1 nM recombinant β-lactamase) amounted to 2 µg/mL. For the same compound, the “reduction in MIC in PAO1 with plasmid pUCP20 versus PAO1” value in [4] (Fig. 4 and Table 3) is “one half”. Moreover, the “MIC for PA14” value in [6] worked out at 7.0 µM. Further, in series [6] (Table S3, initial MIC values), the “PA14 MIC” value was 16 µg/mL. Also, the serum stability entry in series [12] is listed as “improved stability over unstapled P2a”.
Take `CC(C)C[C@@H]1NC(=O)[C@H](CCCNC(=N)N)NC(=O)[C@H](Cc2c[nH]cn2)NC(=O)[C@@H](NC(=O)[C@H](CC(C)C)NC(=O)[C@H](CCCCN)NC(=O)[C@H](CCCNC(=N)N)NC(=O)[C@H](Cc2ccccc2)NC(=O)[C@H](CC(C)C)NC(=O)[C@@H](N)CC(N)=O)CSCCc2cc(nc(NCCCc3ccccc3)n2)CCSC[C@@H](C(=O)N[C@@H](Cc2ccccc2)C(=O)NCC(=O)N[C@@H](Cc2ccc(O)cc2)C(=O)N[C@H](C(=O)N[C@@H](CC(C)C)C(=O)N[C@@H](CCCNC(=N)N)C(N)=O)[C@@H](C)O)NC(=O)[C@H](CCCNC(=N)N)NC(=O)[C@H](CCCNC(=N)N)NC(=O)[C@H](Cc2ccccc2)NC1=O` [P7-1] (HELM PEPTIDE1{N.L.F.R.K.L.C.H.R.L.F.R.R.C.F.G.Y.T.L.R.[am]}|CHEM1{[c1ccc(CCCNc2nc(CC[*:1])cc(CC[*:2])n2)cc1]}$PEPTIDE1,CHEM1,7:R3-1:R1|PEPTIDE1,CHEM1,14:R3-1:R2$$$V2.0): the “Inh (inhibition)” value in series [7] is on record as “✗”.
Still for that read-out and setting: under `CC(=O)N[C@@H](Cc1c[nH]c2ccccc12)C(=O)N[C@H]1CSCCc2cc(nc(NCCCc3ccccc3)n2)CCSC[C@@H](C(=O)N[C@@H](Cc2ccccc2)C(N)=O)NC(=O)CNC(=O)[C@H](CCCNC(=N)N)NC(=O)[C@H](Cc2ccccc2)NC(=O)[C@H](CCCCN)NC(=O)[C@H](CCCCN)NC(=O)[C@H](CC(C)C)NC1=O` [P3-1] (HELM PEPTIDE1{[ac].W.C.L.K.K.F.R.G.C.F.[am]}|CHEM1{[c1ccc(CCCNc2nc(CC[*:1])cc(CC[*:2])n2)cc1]}$PEPTIDE1,CHEM1,3:R3-1:R1|PEPTIDE1,CHEM1,10:R3-1:R2$$$V2.0) stands “✗”; under “KWVQNYMKHLGRKAHTLKT-NH2 [P6a, reference compound]”, “✓”.

Source of the values: paper PMC12447755, “β-Lactamase cleavable antimicrobial peptide–drug conjugates” (Chemical Science, 2025).
